What follows are molecules tested against T1, human TLR8 (hTLR8) (Homo sapiens, UniProt Q9NR97) (assay: Antagonist screen, hTLR8-NFκB-293 cells, NF-κB-luciferase reporter, with EC50 of R848). Conditions: compound at 0.5, 5, 50 μg/ml; EC50 concentration of R848; 16 h; NF-κB-luciferase.
T1 construct: expressed in transfected cells
T1 sequence (Q9NR97 27-1041): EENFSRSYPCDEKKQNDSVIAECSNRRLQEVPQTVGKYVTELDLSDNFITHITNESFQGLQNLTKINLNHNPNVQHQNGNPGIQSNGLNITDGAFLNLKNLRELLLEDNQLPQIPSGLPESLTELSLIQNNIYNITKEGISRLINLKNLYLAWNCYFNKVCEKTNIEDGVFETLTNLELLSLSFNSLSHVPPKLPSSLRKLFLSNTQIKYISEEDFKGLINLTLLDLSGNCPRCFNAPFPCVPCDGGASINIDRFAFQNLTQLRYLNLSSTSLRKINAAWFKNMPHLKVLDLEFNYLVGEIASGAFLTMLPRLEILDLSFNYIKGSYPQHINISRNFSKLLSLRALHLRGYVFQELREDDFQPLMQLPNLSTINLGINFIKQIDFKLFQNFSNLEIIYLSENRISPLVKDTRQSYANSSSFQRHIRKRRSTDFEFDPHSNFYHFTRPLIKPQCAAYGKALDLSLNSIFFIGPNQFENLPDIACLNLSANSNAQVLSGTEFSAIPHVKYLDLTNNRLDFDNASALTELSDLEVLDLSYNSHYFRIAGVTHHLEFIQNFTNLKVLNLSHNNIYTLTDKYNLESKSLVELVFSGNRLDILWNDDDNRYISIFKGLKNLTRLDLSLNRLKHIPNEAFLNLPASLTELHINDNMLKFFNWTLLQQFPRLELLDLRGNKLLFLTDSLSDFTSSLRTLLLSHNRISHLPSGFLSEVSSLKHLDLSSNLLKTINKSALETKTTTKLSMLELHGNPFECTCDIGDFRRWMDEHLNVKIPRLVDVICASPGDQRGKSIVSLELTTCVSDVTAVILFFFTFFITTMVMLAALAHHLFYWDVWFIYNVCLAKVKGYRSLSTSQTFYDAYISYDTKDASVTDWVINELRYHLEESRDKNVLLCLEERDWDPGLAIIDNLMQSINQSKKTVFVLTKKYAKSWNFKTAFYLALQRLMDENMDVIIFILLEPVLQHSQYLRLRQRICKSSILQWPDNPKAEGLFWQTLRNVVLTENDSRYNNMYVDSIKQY
Assay type: cell-based
Protocol: The method is described in greater detail as follows. The cells for each individual cell clone (hTLR3-NFκB-293, hTLR7-NFκB-293, hTLR8-NFκB-293 and hTLR9-NFκB-293) were counted and seeded one day before the stimulation at 1.5×10^4 cells per well in 96-well cell culture plates. To become adherent the cells were incubated after seeding overnight at 37° C. in 5% CO2 humidified air.
The screen for each compound was performed at the same time for all of the receptors TLR3, TLR7, TLR8 and TLR9. Up to fifteen test compounds, each assayed in duplicate at each of three different final concentrations (0.5 μg/ml, 5 μg/ml, and 50 μg/ml), were used for 16 h cell stimulation on a single multiwell culture plate. A 4× final concentration master plate was created to prepare the different test compounds before they were added to the cells.
Controls were added as duplicates individually for each cell clone on the cell culture plate. Positive controls were used as follows (final concentrations): 50 μg/ml poly(I:C) for hTLR3-NFκB-293; 8 μM resiquimod (R848) for hTLR7-NFκB-293; 30 μM R848 for hTLR8-NFκB-293; and 2.5 μM CpG-ODN 2006 for hTLR9-NFκB-293. Media alone was used as negative control. After addition of controls and small molecules, the cell clones were additionally stimulated with the EC50 concentration of the appropriate receptor-specific ligand.
The mean value of wells H2 and H5 (each with cells and EC50 concentration of the appropriate receptor-specific ligand) divided by the mean of wells H3 and H6 (each with cells alone) yielded the baseline response (i.e., fold induction of luciferase activity) to EC50 concentration of the appropriate receptor-specific ligand.
After 16 h stimulation the supernatant was removed and the cells treated with lysis buffer and stored at −80° C. before measuring.
For each screen result a graphical documentation was performed.
The baseline result (measured with addition of the EC50 concentration of the receptor-specific ligand) for each cell culture plate was measured as described above. Antagonistic effects were measured by down regulation compared to the baseline. Antagonists were scored as follows: • 13: compounds for which there was clear down regulation at 0.5 μg/ml, 5 μg/ml, and 50 μg/ml; • 12: compounds for which there was clear down regulation at 5 μg/ml and 50 μg/ml; • 11: compounds for which there was clear down regulation only at 50 μg/ml; • —: compounds for which there was no clear down regulation even at 50 μg/ml. Agonists
Results were expressed as fold induction over baseline luciferase activity measured in the absence of R848. […] Additional screening was performed in like manner using additional small molecules selected from another library or specifically prepared for this purpose. Scoring is reported as above but as applied to TLR8.

| Structure (SMILES) | hTLR8 (inhibitory effect, antagonist score) |
| --- | --- |
| CCCC(C(=O)OCCN(CC)CC)(c1ccccc1)c1ccccc1.Cl [compound 778, Proadifen hydrochloride] | 11 (compounds for which there was clear down regulation only at 50 μg/ml) |
| CS(=O)(=O)O.OC(CCN1CCCCC1)(c1ccccc1)c1ccccc1 [compound 799, Pridinolmethanesulfonate salt] | — (compounds for which there was no clear down regulation even at 50 μg/ml) |
| Cc1cccc(C2(c3cccc(C)c3)OC(=O)c3ccccc32)c1 [compound 1308] | 12 (compounds for which there was clear down regulation at 5 μg/ml and 50 μg/ml) |
| OCc1cc2c(cn1)[nH]c1ccccc12 [compound 878, 3-hydroxymethyl-beta-carboline] | — (compounds for which there was no clear down regulation even at 50 μg/ml) |
| CN1CCC(OC(c2ccccc2)c2ccccc2)CC1.Cl [compound 707, Diphenylpyralinehydrochloride] | — (compounds for which there was no clear down regulation even at 50 μg/ml) |
| CN1Cc2c(N)cccc2C(c2ccccc2)C1.O=C(O)/C=C\C(=O)O (centres unmarked) [compound 108, Nomifensine maleate] | — (compounds for which there was no clear down regulation even at 50 μg/ml) |
| NC(=O)c1cc(N)c2c(c1N)C(=O)c1ccccc1C2=O [compound 1158] | — (compounds for which there was no clear down regulation even at 50 μg/ml) |
| Cl.Clc1ccc(C(OCCN2CCCCC2)c2ccccc2)cc1 (centres unmarked) [compound 793, Cloperastinehydrochloride] | — (compounds for which there was no clear down regulation even at 50 μg/ml) |
| CC(NCCC(c1ccccc1)c1ccccc1)c1ccccc1.Cl (centres unmarked) [compound 270, Fendiline hydrochloride] | 12 (compounds for which there was clear down regulation at 5 μg/ml and 50 μg/ml) |
| CN(C)CCCN1c2ccccc2Sc2ccc(Cl)cc21.Cl [compound 64, Chlorpromazinehydrochloride] | 11 (compounds for which there was clear down regulation only at 50 μg/ml) |
| O=C1Nc2ccccc2Oc2ccc([N+](=O)[O-])cc21 [compound 1352] | — (compounds for which there was no clear down regulation even at 50 μg/ml) |
| CC(=O)c1ccc2c(c1)N(CCCN(C)C)c1ccccc1S2.O=C(O)/C=C\C(=O)O [compound 576, Acetopromazinemaleate salt] | — (compounds for which there was no clear down regulation even at 50 μg/ml) |
| COc1ccc2c(c1)N(CC(C)CN(C)C)c1ccccc1S2.O=C(O)/C=C\C(=O)O (centres unmarked) [compound 797, Methotrimeprazinemaleat salt] | 11 (compounds for which there was clear down regulation only at 50 μg/ml) |
| CNCCCN1c2ccccc2CCc2ccccc21.Cl [compound 343, Desipraminehydrochloride] | 11 (compounds for which there was clear down regulation only at 50 μg/ml) |
| Clc1ccccc1C(c1ccccc1)(c1ccccc1)n1ccnc1 [compound 267, Clotrimazole] | 12 (compounds for which there was clear down regulation at 5 μg/ml and 50 μg/ml) |
| CCCCOC(=O)c1cc([N+](=O)[O-])cc2c1-c1cc(CO)c([NH+]([O-])O)cc1C2=C(C#N)C#N (centres unmarked) [compound 939] | — (compounds for which there was no clear down regulation even at 50 μg/ml) |
| CN(C)CC/C=C1/c2ccccc2Sc2ccc(Cl)cc21.Cl [compound 348, Chlorprothixenehydrochloride] | 11 (compounds for which there was clear down regulation only at 50 μg/ml) |
| COC(=O)C1=CO[C@@H](C)[C@@H]2CN3CCc4c([nH]c5ccccc45)[C@@H]3C[C@H]12 [compound 593, Tetrahydroalstonine] | — (compounds for which there was no clear down regulation even at 50 μg/ml) |
| Cc1c2ccncc2c(C)c2c1[nH]c1ccccc12 [compound 614, Ellipticine] | 11 (compounds for which there was clear down regulation only at 50 μg/ml) |
| COc1ccc2[nH]c3c(c2c1)CCN=C3C [compound 621, Methoxy-6-harmalan] | — (compounds for which there was no clear down regulation even at 50 μg/ml) |
